Test results as given in PubChem BioAssay (NCI).
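Assay format: 96-well plates, 48-hour exposure. GI50 = concentration required for 50% inhibition of growth. At the TGI there is no net growth.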

Key:
Assay in all cases: NCI tumour cell line growth inhibition, 48 h
OVCAR-5 ovarian = system: OVCAR-5 ovarian
OVCAR-3 ovarian = system: OVCAR-3 ovarian
UACC-62 melanoma = system: UACC-62 melanoma
CCRF-CEM leukemia = system: CCRF-CEM leukemia
BT-549 breast = system: BT-549 breast
SNB-75 CNS = system: SNB-75 CNS
NCI-H522 lung = system: NCI-H522 lung
A549 NSCLC = system: A549 NSCLC
SK-MEL-28 melanoma = system: SK-MEL-28 melanoma
NCI-H226 lung = system: NCI-H226 lung
SF-539 CNS = system: SF-539 CNS
M14 melanoma = system: M14 melanoma
KM12 colon = system: KM12 colon
NCI-H23 lung = system: NCI-H23 lung
ACHN renal = system: ACHN renal
K-562 leukemia = system: K-562 leukemia
SR leukemia = system: SR leukemia
MDA-MB-231 breast = system: MDA-MB-231 breast
HCT-15 colon = system: HCT-15 colon
MCF7 breast = system: MCF7 breast
SF-268 CNS = system: SF-268 CNS
UACC-257 melanoma = system: UACC-257 melanoma
SF-295 CNS = system: SF-295 CNS
NCI/ADR-RES ovarian = system: NCI/ADR-RES ovarian
SNB-19 CNS = system: SNB-19 CNS
HCC-2998 colon = system: HCC-2998 colon
HOP-62 NSCLC = system: HOP-62 NSCLC
MDA-MB-435 = system: MDA-MB-435
SK-OV-3 ovarian = system: SK-OV-3 ovarian
HS 578T breast = system: HS 578T breast
OVCAR-4 ovarian = system: OVCAR-4 ovarian
COLO 205 colon = system: COLO 205 colon
U251 CNS = system: U251 CNS
MOLT-4 leukemia = system: MOLT-4 leukemia
UO-31 renal = system: UO-31 renal
T-47D breast = system: T-47D breast
786-0 renal = system: 786-0 renal
A498 renal = system: A498 renal
SK-MEL-5 melanoma = system: SK-MEL-5 melanoma
LOX IMVI melanoma = system: LOX IMVI melanoma
IGROV1 ovarian = system: IGROV1 ovarian
TK-10 renal = system: TK-10 renal
PC-3 prostate = system: PC-3 prostate
DU-145 prostate = system: DU-145 prostate
RPMI-8226 leukemia = system: RPMI-8226 leukemia
RXF 393 renal = system: RXF 393 renal
EKVX NSCLC = system: EKVX NSCLC
CAKI-1 renal = system: CAKI-1 renal
MALME-3M melanoma = system: MALME-3M melanoma
NCI-H460 lung = system: NCI-H460 lung
OVCAR-8 ovarian = system: OVCAR-8 ovarian
HOP-92 NSCLC = system: HOP-92 NSCLC
HCT-116 colon = system: HCT-116 colon
HT29 colon = system: HT29 colon
SW-620 colon = system: SW-620 colon
SK-MEL-2 melanoma = system: SK-MEL-2 melanoma
SN12C renal = system: SN12C renal

`C=CCc1c(O)c(C(=O)/C=C/c2ccccc2)c(OC)c2ccoc12` gave a GI50 (OVCAR-5 ovarian) of 3.22 µM, a TGI (OVCAR-5 ovarian) of 12.7 µM and a GI50 (OVCAR-3 ovarian) of 2460 nM. The TGI (OVCAR-3 ovarian) was 7.06 µM, the GI50 (UACC-62 melanoma) was 2740 nM and the TGI (UACC-62 melanoma) was 9.93 µM. The GI50 (CCRF-CEM leukemia) was 2750 nM, the TGI (CCRF-CEM leukemia) was greater than 100 µM and the GI50 (BT-549 breast) was 2630 nM. The TGI (BT-549 breast) was 8.09 µM, the GI50 (SNB-75 CNS) was 1390 nM and the TGI (SNB-75 CNS) was 6.76 µM. The GI50 (NCI-H522 lung) was 2150 nM, the TGI (NCI-H522 lung) was 9.28 µM and the GI50 (A549 NSCLC) was 4.41 µM. The TGI (A549 NSCLC) was 22.1 µM, the GI50 (SK-MEL-28 melanoma) was 2490 nM and the TGI (SK-MEL-28 melanoma) was 8.28 µM. For the same molecule, the GI50 (NCI-H226 lung) was 1480 nM, the TGI (NCI-H226 lung) was 3.21 µM and the GI50 (SF-539 CNS) was 1710 nM. For the same molecule, the TGI (SF-539 CNS) was 3.93 µM, the GI50 (M14 melanoma) was 5.36 µM and the TGI (M14 melanoma) was 22.9 µM. For the same molecule, the GI50 (KM12 colon) was 4.06 µM, the TGI (KM12 colon) was 13.6 µM and the GI50 (NCI-H23 lung) was 2520 nM. It also gave a GI50 (ACHN renal) of 3.79 µM, a TGI (ACHN renal) of 13.8 µM and a GI50 (K-562 leukemia) of 2870 nM. The TGI (K-562 leukemia) was 16.2 µM, the GI50 (SR leukemia) was 2150 nM and the TGI (SR leukemia) was 6.05 µM. The GI50 (MDA-MB-231 breast) was 3.11 µM, the TGI (MDA-MB-231 breast) was 11.3 µM and the GI50 (HCT-15 colon) was 2910 nM. It also gave a TGI (HCT-15 colon) of 11.8 µM, a GI50 (MCF7 breast) of 2730 nM and a TGI (MCF7 breast) of 10.4 µM. It also gave a GI50 (SF-268 CNS) of 2800 nM, a TGI (SF-268 CNS) of 10.7 µM and a GI50 (UACC-257 melanoma) of 2560 nM. For the same molecule, the TGI (UACC-257 melanoma) was 7.75 µM, the GI50 (SF-295 CNS) was 2440 nM and the TGI (SF-295 CNS) was 7.26 µM. The GI50 (NCI/ADR-RES ovarian) was 1880 nM, the TGI (NCI/ADR-RES ovarian) was 4.91 µM and the GI50 (SNB-19 CNS) was 2850 nM. The TGI (SNB-19 CNS) was 10.7 µM, the GI50 (HCC-2998 colon) was 1730 nM and the TGI (HCC-2998 colon) was 3.21 µM. For the same molecule, the GI50 (HOP-62 NSCLC) was 5.32 µM, the TGI (HOP-62 NSCLC) was 17.8 µM and the GI50 (MDA-MB-435) was 2780 nM. For the same molecule, the TGI (MDA-MB-435) was 10.9 µM, the GI50 (SK-OV-3 ovarian) was 8.08 µM and the TGI (SK-OV-3 ovarian) was 21.2 µM. The GI50 (HS 578T breast) was 3.89 µM, the TGI (HS 578T breast) was 33.8 µM and the GI50 (OVCAR-4 ovarian) was 2890 nM. The TGI (OVCAR-4 ovarian) was 12.8 µM, the GI50 (COLO 205 colon) was 5.96 µM and the TGI (COLO 205 colon) was 18.1 µM. The GI50 (U251 CNS) was 2360 nM, the TGI (U251 CNS) was 7.46 µM and the GI50 (MOLT-4 leukemia) was 2170 nM. The TGI (MOLT-4 leukemia) was 16.6 µM, the GI50 (UO-31 renal) was 2890 nM and the TGI (UO-31 renal) was 14.5 µM. It also gave a GI50 (T-47D breast) of 4.11 µM, a TGI (T-47D breast) of 22.4 µM and a GI50 (786-0 renal) of 4.12 µM. The TGI (786-0 renal) was 16.8 µM, the GI50 (A498 renal) was 1740 nM and the TGI (A498 renal) was 9.4 µM. It also gave a GI50 (SK-MEL-5 melanoma) of 2660 nM, a TGI (SK-MEL-5 melanoma) of 10.9 µM and a GI50 (LOX IMVI melanoma) of 1560 nM. It also gave a TGI (LOX IMVI melanoma) of 2930 nM, a GI50 (IGROV1 ovarian) of 3.35 µM and a TGI (IGROV1 ovarian) of 11.6 µM. The GI50 (TK-10 renal) was 4.96 µM, the TGI (TK-10 renal) was 17.3 µM and the GI50 (PC-3 prostate) was 3.68 µM. It also gave a TGI (PC-3 prostate) of 16.8 µM, a GI50 (DU-145 prostate) of 4.92 µM and a TGI (DU-145 prostate) of 18.1 µM. It also gave a GI50 (RPMI-8226 leukemia) of 1880 nM, a TGI (RPMI-8226 leukemia) of 6.76 µM and a GI50 (RXF 393 renal) of 1850 nM. For the same molecule, the TGI (RXF 393 renal) was 5.62 µM, the GI50 (EKVX NSCLC) was 6.13 µM and the TGI (EKVX NSCLC) was 20.6 µM. It also gave a GI50 (CAKI-1 renal) of 2800 nM, a TGI (CAKI-1 renal) of 11 µM and a GI50 (MALME-3M melanoma) of 5.8 µM. It also gave a TGI (MALME-3M melanoma) of 20.2 µM, a GI50 (NCI-H460 lung) of 2790 nM and a TGI (NCI-H460 lung) of 10.7 µM. The GI50 (OVCAR-8 ovarian) was 3.13 µM, the TGI (OVCAR-8 ovarian) was 13.6 µM and the GI50 (HOP-92 NSCLC) was 1330 nM. For the same molecule, the TGI (HOP-92 NSCLC) was 4.82 µM, the GI50 (HCT-116 colon) was 3.03 µM and the TGI (HCT-116 colon) was 11.1 µM. The GI50 (HT29 colon) was 3.01 µM, the GI50 (SW-620 colon) was 3.32 µM and the TGI (SW-620 colon) was 12.1 µM. For the same molecule, the GI50 (SK-MEL-2 melanoma) was 3.04 µM, the TGI (SK-MEL-2 melanoma) was 13.8 µM and the GI50 (SN12C renal) was 3.79 µM. The TGI (SN12C renal) was 14.1 µM.
